Experimental data: the NIST ThermoML archive (doi:10.1016/j.jct.2003.11.008)

Columns and labels:
[1] = excess molar enthalpy (molar enthalpy of mixing); xn = mol fraction of the nth substance listed; details: 318.15 K, 101.3 kPa, Liquid
[2] = xn = mol fraction of the nth substance listed; details: 318.15 K, 101.3 kPa, Liquid

CCCCCCCCCCCCCCCCC [heptadecane] + CCCOC(C)=O
Details	excess molar enthalpy [kcal/mol]	excess molar volume [m3/mol]
[1], x2 = 0.0838	0.115	–
[1], x2 = 0.1596	0.208	–
[1], x2 = 0.2462	0.301	–
[1], x2 = 0.3255	0.371	–
[1], x2 = 0.3884	0.406	–
[1], x2 = 0.4477	0.435	–
[1], x2 = 0.4925	0.447	–
[1], x2 = 0.5313	0.451	–
[1], x2 = 0.5702	0.451	–
[1], x2 = 0.6288	0.438	–
[1], x2 = 0.6644	0.424	–
[1], x2 = 0.7023	0.403	–
[1], x2 = 0.7423	0.38	–
[1], x2 = 0.7826	0.346	–
[1], x2 = 0.8239	0.308	–
[1], x2 = 0.8654	0.262	–
[1], x2 = 0.9064	0.203	–
[1], x2 = 0.9452	0.138	–
[1], x2 = 0.9772	0.0665	–
[2], x2 = 0.2332	–	8.02e-07
[2], x2 = 0.3167	–	1.017e-06
[2], x2 = 0.4087	–	1.166e-06
[2], x2 = 0.4759	–	1.235e-06
[2], x2 = 0.5393	–	1.28e-06
[2], x2 = 0.5977	–	1.276e-06
[2], x2 = 0.6463	–	1.246e-06
[2], x2 = 0.6916	–	1.225e-06
[2], x2 = 0.7628	–	1.103e-06
[2], x2 = 0.8202	–	9.42e-07
[2], x2 = 0.891	–	6.77e-07
[2], x2 = 0.9375	–	4.38e-07
[2], x2 = 0.9705	–	2.25e-07

CCCCCCCCCCC [undecane] + CCCCOC(C)=O
Details	excess molar enthalpy [kcal/mol]	excess molar volume [m3/mol]
[1], x2 = 0.0677	0.08	–
[1], x2 = 0.1493	0.151	–
[1], x2 = 0.2299	0.21	–
[1], x2 = 0.3113	0.255	–
[1], x2 = 0.3836	0.282	–
[1], x2 = 0.4482	0.296	–
[1], x2 = 0.5078	0.3	–
[1], x2 = 0.5555	0.295	–
[1], x2 = 0.5708	0.292	–
[1], x2 = 0.6136	0.28	–
[1], x2 = 0.6586	0.265	–
[1], x2 = 0.7055	0.248	–
[1], x2 = 0.7534	0.225	–
[1], x2 = 0.7837	0.206	–
[1], x2 = 0.832	0.173	–
[1], x2 = 0.8778	0.135	–
[1], x2 = 0.9233	0.0902	–
[1], x2 = 0.9637	0.0459	–
[2], x2 = 0.0356	–	1.49e-07
[2], x2 = 0.0842	–	3.26e-07
[2], x2 = 0.1543	–	5.21e-07
[2], x2 = 0.2226	–	6.82e-07
[2], x2 = 0.288	–	7.97e-07
[2], x2 = 0.35	–	8.56e-07
[2], x2 = 0.407	–	9.28e-07
[2], x2 = 0.4636	–	9.43e-07
[2], x2 = 0.5172	–	9.66e-07
[2], x2 = 0.5676	–	9.44e-07
[2], x2 = 0.6153	–	9.27e-07
[2], x2 = 0.6613	–	8.79e-07
[2], x2 = 0.7042	–	8.17e-07
[2], x2 = 0.7392	–	7.75e-07
[2], x2 = 0.8289	–	5.74e-07
[2], x2 = 0.8978	–	3.84e-07
[2], x2 = 0.9408	–	2.33e-07

CCCCOC(C)=O [butyl ethanoate] + CCCCCCC
Details	excess molar enthalpy [kcal/mol]	excess molar volume [m3/mol]
[1], x1 = 0.0596	0.0656	–
[1], x1 = 0.1274	0.12	–
[1], x1 = 0.1982	0.165	–
[1], x1 = 0.2667	0.196	–
[1], x1 = 0.3335	0.218	–
[1], x1 = 0.3922	0.23	–
[1], x1 = 0.4492	0.235	–
[1], x1 = 0.5003	0.236	–
[1], x1 = 0.5104	0.235	–
[1], x1 = 0.5381	0.234	–
[1], x1 = 0.5567	0.232	–
[1], x1 = 0.6057	0.224	–
[1], x1 = 0.6593	0.211	–
[1], x1 = 0.7144	0.19	–
[1], x1 = 0.7729	0.161	–
[1], x1 = 0.8331	0.126	–
[1], x1 = 0.8932	0.0849	–
[1], x1 = 0.9488	0.0439	–
[2], x1 = 0.0555	–	1.92e-07
[2], x1 = 0.1132	–	3.36e-07
[2], x1 = 0.1672	–	4.34e-07
[2], x1 = 0.22	–	5.12e-07
[2], x1 = 0.2722	–	5.77e-07
[2], x1 = 0.3229	–	6.09e-07
[2], x1 = 0.3726	–	6.31e-07
[2], x1 = 0.4298	–	6.52e-07
[2], x1 = 0.4755	–	6.52e-07
[2], x1 = 0.5265	–	6.24e-07
[2], x1 = 0.5779	–	5.89e-07
[2], x1 = 0.6271	–	5.55e-07
[2], x1 = 0.6607	–	5.13e-07
[2], x1 = 0.7709	–	3.86e-07
[2], x1 = 0.8611	–	2.64e-07
[2], x1 = 0.9342	–	1.22e-07

COC(C)=O [methyl ethanoate] + CCCCCCC
Details	excess molar enthalpy [kcal/mol]	excess molar volume [m3/mol]
[1], x1 = 0.0778	0.136	–
[1], x1 = 0.1534	0.243	–
[1], x1 = 0.2251	0.331	–
[1], x1 = 0.2785	0.378	–
[1], x1 = 0.3445	0.426	–
[1], x1 = 0.4038	0.451	–
[1], x1 = 0.4555	0.461	–
[1], x1 = 0.5034	0.465	–
[1], x1 = 0.5451	0.461	–
[1], x1 = 0.5759	0.456	–
[1], x1 = 0.6498	0.428	–
[1], x1 = 0.6832	0.416	–
[1], x1 = 0.7322	0.389	–
[1], x1 = 0.7698	0.356	–
[1], x1 = 0.8184	0.313	–
[1], x1 = 0.873	0.25	–
[1], x1 = 0.9036	0.189	–
[1], x1 = 0.9534	0.108	–
[2], x1 = 0.096	–	6.73e-07
[2], x1 = 0.1583	–	9.83e-07
[2], x1 = 0.2293	–	1.293e-06
[2], x1 = 0.2947	–	1.495e-06
[2], x1 = 0.3534	–	1.597e-06
[2], x1 = 0.408	–	1.665e-06
[2], x1 = 0.4619	–	1.705e-06
[2], x1 = 0.5159	–	1.699e-06
[2], x1 = 0.5572	–	1.659e-06
[2], x1 = 0.6064	–	1.605e-06
[2], x1 = 0.6501	–	1.535e-06
[2], x1 = 0.6915	–	1.451e-06
[2], x1 = 0.7275	–	1.345e-06
[2], x1 = 0.7645	–	1.228e-06
[2], x1 = 0.8471	–	8.83e-07
[2], x1 = 0.9111	–	5.53e-07
[2], x1 = 0.9577	–	2.83e-07

CCOC(C)=O [ethyl acetate] + CCCCCCC
Details	excess molar enthalpy [kcal/mol]	excess molar volume [m3/mol]
[1], x1 = 0.0803	0.113	–
[1], x1 = 0.1683	0.2	–
[1], x1 = 0.2488	0.27	–
[1], x1 = 0.323	0.317	–
[1], x1 = 0.395	0.346	–
[1], x1 = 0.4614	0.359	–
[1], x1 = 0.5037	0.361	–
[1], x1 = 0.546	0.363	–
[1], x1 = 0.5784	0.357	–
[1], x1 = 0.5813	0.357	–
[1], x1 = 0.6222	0.341	–
[1], x1 = 0.6647	0.322	–
[1], x1 = 0.7146	0.296	–
[1], x1 = 0.7646	0.26	–
[1], x1 = 0.8157	0.217	–
[1], x1 = 0.8649	0.17	–
[1], x1 = 0.9129	0.115	–
[1], x1 = 0.9591	0.0596	–
[2], x1 = 0.0808	–	4.63e-07
[2], x1 = 0.143	–	7.33e-07
[2], x1 = 0.2084	–	9.35e-07
[2], x1 = 0.2751	–	1.105e-06
[2], x1 = 0.3329	–	1.204e-06
[2], x1 = 0.3968	–	1.263e-06
[2], x1 = 0.4462	–	1.303e-06
[2], x1 = 0.5057	–	1.309e-06
[2], x1 = 0.5536	–	1.289e-06
[2], x1 = 0.6019	–	1.236e-06
[2], x1 = 0.6506	–	1.163e-06
[2], x1 = 0.6848	–	1.107e-06
[2], x1 = 0.7249	–	1.019e-06
[2], x1 = 0.8166	–	7.67e-07
[2], x1 = 0.8964	–	4.43e-07
[2], x1 = 0.9478	–	2.47e-07

CCCCCCCCCCCCC [tridecane] + COC(C)=O
Details	excess molar enthalpy [kcal/mol]	excess molar volume [m3/mol]
[1], x2 = 0.1268	0.197	–
[1], x2 = 0.2391	0.341	–
[1], x2 = 0.3316	0.448	–
[1], x2 = 0.4097	0.517	–
[1], x2 = 0.4693	0.553	–
[1], x2 = 0.5214	0.571	–
[1], x2 = 0.5635	0.578	–
[1], x2 = 0.5965	0.581	–
[1], x2 = 0.6319	0.574	–
[1], x2 = 0.6706	0.559	–
[1], x2 = 0.7114	0.534	–
[1], x2 = 0.7533	0.504	–
[1], x2 = 0.7939	0.461	–
[1], x2 = 0.8383	0.402	–
[1], x2 = 0.883	0.33	–
[1], x2 = 0.9274	0.242	–
[1], x2 = 0.9665	0.133	–
[2], x2 = 0.1152	–	6.95e-07
[2], x2 = 0.195	–	1.093e-06
[2], x2 = 0.2573	–	1.364e-06
[2], x2 = 0.3086	–	1.537e-06
[2], x2 = 0.357	–	1.665e-06
[2], x2 = 0.4302	–	1.838e-06
[2], x2 = 0.5045	–	1.919e-06
[2], x2 = 0.561	–	1.946e-06
[2], x2 = 0.6192	–	1.917e-06
[2], x2 = 0.666	–	1.849e-06
[2], x2 = 0.7125	–	1.753e-06
[2], x2 = 0.7495	–	1.651e-06
[2], x2 = 0.8399	–	1.288e-06
[2], x2 = 0.8997	–	9.51e-07
[2], x2 = 0.9425	–	6.18e-07
[2], x2 = 0.9745	–	2.97e-07

CCCCCCCCCCCCC [tridecane] + CCCCOC(C)=O
Details	excess molar enthalpy [kcal/mol]	excess molar volume [m3/mol]
[1], x2 = 0.0771	0.0913	–
[1], x2 = 0.166	0.17	–
[1], x2 = 0.2551	0.238	–
[1], x2 = 0.3371	0.286	–
[1], x2 = 0.405	0.312	–
[1], x2 = 0.4672	0.326	–
[1], x2 = 0.5179	0.329	–
[1], x2 = 0.5589	0.326	–
[1], x2 = 0.5984	0.32	–
[1], x2 = 0.6058	0.317	–
[1], x2 = 0.64	0.306	–
[1], x2 = 0.6863	0.286	–
[1], x2 = 0.7361	0.259	–
[1], x2 = 0.7879	0.224	–
[1], x2 = 0.8426	0.183	–
[1], x2 = 0.8971	0.13	–
[1], x2 = 0.9531	0.0683	–
[2], x2 = 0.1024	–	3.78e-07
[2], x2 = 0.1769	–	5.73e-07
[2], x2 = 0.2511	–	7.35e-07
[2], x2 = 0.3192	–	8.56e-07
[2], x2 = 0.3845	–	9.36e-07
[2], x2 = 0.4434	–	9.93e-07
[2], x2 = 0.5021	–	1.014e-06
[2], x2 = 0.5481	–	1.023e-06
[2], x2 = 0.6023	–	1.006e-06
[2], x2 = 0.6495	–	9.59e-07
[2], x2 = 0.6914	–	9.14e-07
[2], x2 = 0.7346	–	8.49e-07
[2], x2 = 0.7647	–	7.97e-07
[2], x2 = 0.8473	–	5.94e-07
[2], x2 = 0.9072	–	3.95e-07
[2], x2 = 0.9586	–	1.65e-07
